According to patent US9951093B2, “Chiral compounds substituted with phosphonic acid ester functions or phosphonic acid functions” (UGISense AG, priority 2006, dated 2018):

System: HIV-1-NL4-3
Assay: p24 ELISA in H9 cells chronically infected with HIV-1-NL4-3 (antisense effect)
Format: cell-based
Details: H9 cells chronically infected with HIV-1-NL4-3, 5 days of incubation, p24 GAG ELISA
Description: H9 cells, chronically infected with strain HIV-1-NL4-3 are washed twice with a PBS buffer in order to remove viruses already produced. The cells are incubated in a 96-well plate with 10^4 cells/well, 4 wells per sample, in 200 μl culturing medium with or without a compound according to the invention or Ritonavir, respectively, at a distinct concentration. After 5 days of incubation, 40 μl of the cell suspension are taken from each of the 4 wells and inactivated with 40 μl Nonidet P-40.
The amount of the antigen p24 GAG is determined by a quantitative ELISA assay (Sandwich-ELISA-Biotin-Strepavidin-HRP) according to the standard method of the Institute for Applied Microbiology in Vienna. As a standard, samples with a known amount of p24 are used to investigate the standard calibration curve.
In this context, in the case of stereochemically non-uniform oligomers of the sequence […]-NH2 (SEQ ID NO: 1), a reduction of the amount of p24 of 21% can be observed compared with the untreated sample.

## TCGCTGCCAAAGAGT-NH2: stereochemically non-uniform oligomers of the sequence TCGCTGCCAAAGAGT-NH2 (SEQ ID NO: 1), as in EP 1157031 (3'-NH2, stereochemically non-uniform, chemistry not fully specified)
  reduction of the amount of p24 compared with the untreated sample: 21%
